Patent US10487093B2, “Heterocyclic compounds, in particular 2-oxo-4,4,5,5,6,6,7,7-octahydrobenzoxazole derivatives, and their use as antibacterial compounds” (priority 2016, dated 2019)
Converted amounts (≈) assume the structure as drawn.

Legend:
[1] = tested on: Neisseria meningitidis ATCC 13090; assay: MIC, broth microdilution (CLSI) versus planktonic bacteria; type: cell-based; settings: ATCC13090, 16-20 h, mode of three independent experiments
[2] = tested on: Acinetobacter baumannii ATCC 19606; assay: as above; type: cell-based; settings: ATCC19606; Acinetobacter baumannii ATCC 19606; 16-20 h; mode of three independent experiments; read-out: MIC, Ab ATCC 19606
E. coli MG1655 = assay: as above; type: cell-based, Escherichia coli; settings: Escherichia coli, MG1655, read-out: MIC, Ec MG1655 WT
[3] = tested on: Pseudomonas aeruginosa ATCC 27853; assay: as above; type: cell-based; settings: ATCC27853; Pseudomonas aeruginosa ATCC 27853; 16-20 h; mode of three independent experiments; read-out: MIC, Pa ATCC 27853
E. coli ATCC BAA-2452 = assay: as above; type: cell-based; settings: Escherichia coli ATCC BAA-2452; 16-20 h; mode of three independent experiments; read-out: MIC, Ec ATCC BAA 2452
E. coli NCTC 13476 = assay: as above; type: cell-based; settings: NCTC13476; Escherichia coli NCTC 13476; 16-20 h; mode of three independent experiments; read-out: MIC, Ec NCTC 13476
[4] = tested on: Escherichia coli ATCC 25922; assay: as above; type: cell-based; settings: ATCC25922; Escherichia coli ATCC 25922; 16-20 h; mode of three independent experiments; read-out: MIC, Ec ATCC 25922
E. coli MG1655 S83L = type: cell-based, Escherichia coli; settings: compared to the isogenic parent strain E. coli MG1655; S83L mutation on DNA gyrase subunit GyrA
[5] = tested on: Staphylococcus aureus ATCC 29213; assay: MIC, broth microdilution (CLSI) versus planktonic bacteria; type: cell-based; settings: ATCC29213; Staphylococcus aureus ATCC 29213; 16-20 h; mode of three independent experiments; read-out: MIC, Sa ATCC 29213
[6] = tested on: Streptococcus pneumoniae ATCC 49619; assay: as above; type: cell-based; settings: ATCC49619; Streptococcus pneumoniae ATCC 49619; 16-20 h; mode of three independent experiments; read-out: MIC, Sp ATCC 49619
[7] = tested on: Haemophilus influenzae ATCC 49247; assay: as above; type: cell-based; settings: ATCC49247; Haemophilus influenzae ATCC 49247; 16-20 h; mode of three independent experiments; read-out: MIC, Hi ATCC 49247
[8] = tested on: Enterobacter cloacae NCTC 13406; assay: as above; type: cell-based; settings: NCTC13406; Enterobacter cloacae NCTC 13406; 16-20 h; mode of three independent experiments; read-out: MIC, Ecl NCTC 13406
E. coli MG1655 D87G = type: cell-based, Escherichia coli; settings: compared to the isogenic parent strain E. coli MG1655; D87G mutation on DNA gyrase subunit GyrA
[9] = tested on: Acinetobacter baumannii NCTC 13420; assay: MIC, broth microdilution (CLSI) versus planktonic bacteria; type: cell-based; settings: NCTC13420; Acinetobacter baumannii NCTC 13420; 16-20 h; mode of three independent experiments; read-out: MIC, Ab NCTC 13420
[10] = tested on: human hepatic cell line (HepG2 ATCC HB-8065); assay: Human cell viability assay (CellTiter-Glo); settings: Homo sapiens, HepG2, 24 h, read-out: IC50 (μg/mL) HepG2
[11] = tested on: Mycobacterium smegmatis ATCC 19420; assay: MIC, broth microdilution (CLSI) versus planktonic bacteria; type: cell-based; settings: Mycolicibacterium smegmatis, ATCC19420, 16-20 h, mode of three independent experiments, read-out: MIC, Ms ATCC 19420

SMILES: COc1ccc2ccc(=O)n(CCN[C@H]3CC[C@H]4[C@@H](C3)OC(=O)N4c3ccc4c(n3)NC(=O)CO4)c2n1 [Compound 4, 1-(2-{[(3aS,6S,7aR)-2-oxo-3-{3-oxo-2H,3H,4H-pyrido[3,2-b][1,4]oxazin-6-yl}-octahydro-1,3-benzoxazol-6-yl]amino}ethyl)-7-methoxy-1,2-dihydro-1,8-naphthyridin-2-one]
- MIC [1]: < 1 µg/mL
- MIC [2]: < 1 µg/mL
- MIC (E. coli MG1655): < 1 µg/mL
- MIC [3]: 1 to 10 µg/mL (≈ 1.97 to 19.7 µM)
- MIC (E. coli ATCC BAA-2452): < 1 µg/mL
- MIC (E. coli NCTC 13476): < 1 µg/mL
- MIC [4]: < 1 µg/mL
- Fold increase in MIC, E. coli MG1655 S83L (E. coli MG1655 S83L): 1 fold
- MIC [5]: < 1 µg/mL
- MIC [6]: < 1 µg/mL
- MIC [7]: 1 to 10 µg/mL (≈ 1.97 to 19.7 µM)
- MIC [8]: < 1 µg/mL
- Fold increase in MIC, E. coli MG1655 D87G (E. coli MG1655 D87G): 1 fold
- MIC [9]: < 1 µg/mL
- IC50 [10]: 10 to 100 µg/mL (≈ 19.7 to 197 µM)
- MIC [11]: < 1 µg/mL
